Data from ChEMBL document CHEMBL3593202, “Design, Synthesis, and Characterization of 3-(Benzylidene)indolin-2-one Derivatives as Ligands for α-Synuclein Fibrils” (J Med Chem, 2015).
The source made the active and inactive calls. The calls are words filed in the database; no cut-off is given here.

Key:
Alpha-synuclein [1] = target: T1, Alpha-synuclein (Homo sapiens, UniProt P37840); assay: Displacement of Thio-T from recombinant alpha-synuclein (unknown origin) expressed in Escherichia coli after 1.5 hrs by fluorescence assay
[2] = target: T2, Microtubule-associated protein tau (Homo sapiens, UniProt P10636); assay: Displacement of Thio-T from human recombinant tau (243 to 375) expressed in Escherichia coli BL21(DE3)RIL after 1.5 hrs by fluorescence assay
T2 sequence (P10636 whole entry): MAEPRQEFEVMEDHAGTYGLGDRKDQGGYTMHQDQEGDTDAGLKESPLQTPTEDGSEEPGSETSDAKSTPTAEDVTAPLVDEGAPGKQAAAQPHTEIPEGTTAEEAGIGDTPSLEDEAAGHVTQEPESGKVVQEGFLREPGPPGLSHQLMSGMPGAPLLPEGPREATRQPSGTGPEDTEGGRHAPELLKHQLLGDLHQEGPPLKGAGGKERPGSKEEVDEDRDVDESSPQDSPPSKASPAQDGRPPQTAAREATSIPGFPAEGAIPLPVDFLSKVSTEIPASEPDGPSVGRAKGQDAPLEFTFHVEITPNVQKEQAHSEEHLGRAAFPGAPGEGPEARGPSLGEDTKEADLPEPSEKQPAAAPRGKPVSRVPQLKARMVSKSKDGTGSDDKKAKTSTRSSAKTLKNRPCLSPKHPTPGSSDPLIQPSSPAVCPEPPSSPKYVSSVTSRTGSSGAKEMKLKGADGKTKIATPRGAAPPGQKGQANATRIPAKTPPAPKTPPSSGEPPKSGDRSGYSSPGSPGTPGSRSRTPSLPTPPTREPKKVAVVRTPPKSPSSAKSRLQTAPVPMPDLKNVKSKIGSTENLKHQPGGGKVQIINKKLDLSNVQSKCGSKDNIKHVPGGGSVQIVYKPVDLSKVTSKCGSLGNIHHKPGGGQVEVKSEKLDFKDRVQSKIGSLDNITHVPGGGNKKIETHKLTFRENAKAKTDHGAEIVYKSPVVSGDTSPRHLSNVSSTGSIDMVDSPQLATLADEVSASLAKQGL

[3] = target: T3, Amyloid-beta precursor protein (Homo sapiens, UniProt P05067); assay: Displacement of Thio-T from synthetic amyloid beta (1 to 42) (unknown origin) after 1.5 hrs by fluorescence assay
T3 sequence (P05067 whole entry): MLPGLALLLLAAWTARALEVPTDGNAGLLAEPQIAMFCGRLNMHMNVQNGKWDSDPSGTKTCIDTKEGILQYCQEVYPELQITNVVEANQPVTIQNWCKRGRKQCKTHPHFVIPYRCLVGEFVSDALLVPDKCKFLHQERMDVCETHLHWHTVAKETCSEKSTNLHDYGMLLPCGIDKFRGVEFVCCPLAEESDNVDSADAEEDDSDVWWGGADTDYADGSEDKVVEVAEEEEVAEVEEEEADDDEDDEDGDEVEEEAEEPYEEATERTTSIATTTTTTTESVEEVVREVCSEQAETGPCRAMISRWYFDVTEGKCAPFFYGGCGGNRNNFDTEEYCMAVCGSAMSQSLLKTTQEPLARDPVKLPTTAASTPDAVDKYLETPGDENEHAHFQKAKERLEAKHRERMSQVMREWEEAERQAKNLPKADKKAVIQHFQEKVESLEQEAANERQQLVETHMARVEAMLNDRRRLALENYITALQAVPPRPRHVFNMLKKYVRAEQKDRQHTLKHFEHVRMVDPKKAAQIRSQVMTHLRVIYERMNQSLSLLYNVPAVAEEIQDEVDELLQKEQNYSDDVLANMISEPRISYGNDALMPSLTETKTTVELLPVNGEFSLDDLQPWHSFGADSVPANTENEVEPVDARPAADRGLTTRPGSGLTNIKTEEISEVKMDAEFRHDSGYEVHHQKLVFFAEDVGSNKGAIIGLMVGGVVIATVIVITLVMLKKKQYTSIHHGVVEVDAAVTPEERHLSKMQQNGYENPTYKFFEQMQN

[4] = target: T3, Amyloid-beta precursor protein; assay: Binding affinity to amyloid beta in alzheimer's diseased human brain tissue at 5 uM after 20 mins by fluorescence microscopic analysis
[5] = target: T3, Amyloid-beta precursor protein; assay: Binding affinity amyloid beta (1 to 42) (unknown origin) expressed in Escherichia coli after 1 hr by scintillation counting
Alpha-synuclein [6] = target: T1, Alpha-synuclein; assay: Binding affinity to recombinant alpha-synuclein (unknown origin) expressed in Escherichia coli after 1 hr by scintillation counting
[7] = target: T2, Microtubule-associated protein tau; assay: Binding affinity human recombinant tau (243 to 375) expressed in Escherichia coli BL21(DE3)RIL after 1 hr by scintillation counting
[8] = Lipophilicity, log P of the compound; type: physicochemical; settings: octanol/water

| SMILES | Ki (Alpha-synuclein [1]) | Ki [2] | Ki [3] | Activity [4] | Kd [5] | Kd (Alpha-synuclein [6]) | Kd [7] | logP [8] |
| --- | --- | --- | --- | --- | --- | --- | --- | --- |
| CCOC(=O)N1C(=O)/C(=C\c2ccc(N(C)C)cc2)c2ccccc21 (mixture of isomers) | 343 nM | 1120 nM | 140 nM | – | – | – | – | – |
| O=C1Nc2ccccc2/C1=C/c1ccc([N+](=O)[O-])cc1 | 347 nM | 362 nM | 325 nM | – | – | – | – | – |
| COc1ccc(CN2C(=O)/C(=C\c3ccc(N(C)C)cc3)c3cccnc32)cc1 (mixture of isomers) | 79.5 nM | 853 nM | 113 nM | – | – | – | – | – |
| CN(C)c1ccc(/C=C/C=C2\C(=O)Nc3ccccc32)cc1 (mixture of isomers) | 40.7 nM | 53.7 nM | 27.6 nM | Active | – | – | – | – |
| CN(C)c1ccc(/C=C2\C(=O)Nc3ncccc32)cc1 (mixture of isomers) | 124 nM | 191 nM | 40 nM | – | – | – | – | – |
| COc1ccc(CN2C(=O)/C(=C\C=C\c3ccc(N(C)C)cc3)c3cccnc32)cc1 (mixture of isomers) | 29.8 nM | 204 nM | 107 nM | – | – | – | – | – |
| CN(C)c1ccc(/C=C/C=C2\C(=O)N(c3ccccc3)c3ccccc32)cc1 (mixture of isomers) | 68.1 nM | 465 nM | 287 nM | – | – | – | – | – |
| CN(C)c1ccc(/C=C2\C(=O)Nc3ccc(O)cc32)cc1 (mixture of isomers) | 407 nM | 212 nM | 94.8 nM | – | – | – | – | – |
| CN(C)c1ccc(/C=C/C=C2\C(=O)N(Cc3ccccc3)c3ncccc32)cc1 (mixture of isomers) | 68.3 nM | 257 nM | 85.1 nM | – | – | – | – | – |
| Nc1ccc(/C=C/C=C2\C(=O)Nc3ccccc32)cc1 (mixture of isomers) | 44.8 nM | 38.3 nM | 50.8 nM | – | – | – | – | – |
| CN(C)c1ccc(/C=C/C=C2\C(=O)Nc3ccc(O)cc32)cc1 (mixture of isomers) | 54 nM | 48 nM | 37.1 nM | – | – | – | – | – |
| CN(C)c1ccc(/C=C2\C(=O)Nc3ccccc32)cc1 (mixture of isomers) | 84.4 nM | 261 nM | 91.6 nM | – | – | – | – | – |
| CN(C)c1ccc(/C=C/C=C2\C(=O)Nc3ncccc32)cc1 (mixture of isomers) | 11.5 nM | 35.1 nM | 15.3 nM | – | – | – | – | – |
| CN(C)c1ccc(/C=C/C=C2\C(=O)N(Cc3ccccc3)c3ccccc32)cc1 (mixture of isomers) | 40.9 nM | 374 nM | 358 nM | – | – | – | – | – |
| CN(C)c1ccc(/C=C/C=C2\C(=O)N(Cc3ccncc3)c3ccccc32)cc1 | 92 nM | 188 nM | – | – | – | – | – | – |
| CN(C)c1ccc(/C=C2\C(=O)N(C)c3ccccc32)cc1 (mixture of isomers) | 508 nM | 618 nM | 155 nM | – | – | – | – | – |
| COc1ccc(CN2C(=O)/C(=C\c3ccc(N(C)C)cc3)c3ccccc32)cc1 (mixture of isomers) | 114 nM | 432 nM | 251 nM | – | – | – | – | – |
| CN(C)c1ccc(/C=C/C=C2\C(=O)N(Cc3ccc([N+](=O)[O-])cc3)c3ccccc32)cc1 (mixture of isomers) | 4.2 nM | 90 nM | 92.4 nM | – | – | – | – | – |
| O=C1Nc2ccccc2/C1=C/C=C/c1ccc([N+](=O)[O-])cc1 | 14.6 nM | 27.1 nM | 36.2 nM | – | – | – | – | – |
| COc1ccc(/C=C/C=C2\C(=O)N(Cc3ccccc3)c3ccccc32)cc1 (mixture of isomers) | 72.5 nM | 718 nM | 741 nM | – | – | – | – | – |
| CN(C)c1ccc(/C=C/C=C2\C(=O)N(Cc3ccc(N)cc3)c3ccccc32)cc1 (mixture of isomers) | 43.6 nM | 131 nM | 98.9 nM | – | – | – | – | – |
| CN(C)c1ccc(/C=C2\C(=O)N(Cc3ccncc3)c3ccccc32)cc1 | 150 nM | 364 nM | – | – | – | – | – | – |
| COc1ccc(CN2C(=O)/C(=C\C=C\c3ccc(N(C)C)cc3)c3ccccc32)cc1 (mixture of isomers) | 54.6 nM | 240 nM | 130 nM | – | – | – | – | – |

| SMILES | Ki (Alpha-synuclein [1]) | Ki [2] | Ki [3] | Activity [4] | Kd [5] | Kd (Alpha-synuclein [6]) | Kd [7] | logP [8] |
| --- | --- | --- | --- | --- | --- | --- | --- | --- |
| O=C1/C(=C\C=C\c2ccc([N+](=O)[O-])cc2)c2ccccc2N1Cc1ccc(OCC[18F])cc1 | – | – | – | – | 271 nM | 8.9 nM | 50 nM | – |
| O=C1/C(=C\C=C\c2ccccc2)c2ccccc2N1Cc1ccccc1 (mixture of isomers) | 227 nM | 682 nM | 703 nM | – | – | – | – | – |
| COc1ccc(CN2C(=O)/C(=C\C=C\c3ccc([N+](=O)[O-])cc3)c3ccccc32)cc1 | 12.9 nM | 72.4 nM | 131 nM | – | – | – | – | – |
| COc1ccc(CN2C(=O)/C(=C/C=C/c3ccc([N+](=O)[O-])cc3)c3ccccc32)cc1OC | 53.3 nM | 630 nM | 130 nM | – | – | – | – | – |
| CN(C)c1ccc(/C=C2\C(=O)N(Cc3ccccc3)c3ccccc32)cc1 | 144 nM | 798 nM | 260 nM | – | – | – | – | – |
| O=C1Nc2ccccc2/C1=C\c1ccc([N+](=O)[O-])cc1 | 622 nM | 528 nM | 439 nM | – | – | – | – | – |
| O=C1/C(=C\C=C\c2ccc([N+](=O)[O-])cc2)c2ccccc2N1Cc1ccc(OCCF)cc1 | 2.1 nM | 80.1 nM | 142 nM | – | – | – | – | 4.18 |
| O=C1/C(=C\c2ccc([N+](=O)[O-])cc2)c2ccccc2N1Cc1ccccc1 | 483 nM | 1760 nM | 460 nM | – | – | – | – | – |
| COc1cccc(CN2C(=O)/C(=C\C=C\c3ccc([N+](=O)[O-])cc3)c3ccccc32)c1 | 3.8 nM | 229 nM | 110 nM | – | – | – | – | – |
| O=C1Nc2ccccc2/C1=C/C=C/c1ccccc1 (mixture of isomers) | 207 nM | 522 nM | 267 nM | – | – | – | – | – |
| O=C1/C(=C\C=C\c2ccc([N+](=O)[O-])cc2)c2ccccc2N1Cc1ccccc1 | 25 nM | 121 nM | 214 nM | – | – | – | – | – |
| O=C1/C(=C/C=C/c2ccc([N+](=O)[O-])cc2)c2ccccc2N1Cc1ccccc1 | 193 nM | 590 nM | 235 nM | – | – | – | – | – |
| COc1cccc(CN2C(=O)/C(=C/C=C/c3ccc([N+](=O)[O-])cc3)c3ccccc32)c1 | 64.7 nM | 355 nM | 265 nM | – | – | – | – | – |
| COc1ccc(CN2C(=O)/C(=C/C=C/c3ccc([N+](=O)[O-])cc3)c3ccccc32)cc1 | 81.9 nM | 318 nM | 138 nM | – | – | – | – | – |
| O=C1Nc2ccccc2/C1=C\C=C\c1ccc([N+](=O)[O-])cc1 | 211 nM | 209 nM | 60 nM | – | – | – | – | – |
| CCOC(=O)N1C(=O)/C(=C\C=C\c2ccc(N(C)C)cc2)c2ccccc21 (mixture of isomers) | 45.3 nM | 263 nM | 84 nM | – | – | – | – | – |
| CN(C)c1ccc(/C=C2\C(=O)N(Cc3ccccc3)c3ncccc32)cc1 (mixture of isomers) | 350 nM | 859 nM | 190 nM | – | – | – | – | – |
| CN(C)c1ccc(/C=C/C=C2\C(=O)N(C)c3ccccc32)cc1 (mixture of isomers) | 63.7 nM | 229 nM | 56 nM | – | – | – | – | – |
| COc1ccc(/C=C/C=C2\C(=O)Nc3ccccc32)cc1 (mixture of isomers) | 61.1 nM | 169 nM | 126 nM | – | – | – | – | – |
| O=C1/C(=C/c2ccc([N+](=O)[O-])cc2)c2ccccc2N1Cc1ccccc1 | 959 nM | 1410 nM | 695 nM | – | – | – | – | – |
| CN(C)c1ccc(/C=C2\C(=O)N(c3ccccc3)c3ccccc32)cc1 (mixture of isomers) | 290 nM | 790 nM | 179 nM | – | – | – | – | – |
| O=C1/C(=C/C=C/c2ccc([N+](=O)[O-])cc2)c2ccccc2N1Cc1ccc(OCCF)cc1 | 76.1 nM | 456 nM | 125 nM | – | – | – | – | – |
| COc1ccc(CN2C(=O)/C(=C\C=C\c3ccc([N+](=O)[O-])cc3)c3ccccc32)cc1OC | 3.5 nM | 152 nM | 73.6 nM | – | – | – | – | – |
